Experimental data published in article PMC4416907, “An Unexpected Mode Of Binding Defines BMS948 as A Full Retinoic Acid Receptor β (RARβ, NR1B2) Selective Agonist” (PLoS ONE, 2015).

Columns and labels:
human RARα1 = tested on: T1, human RARα1; test: Transient transactivation reporter assay, (RARE)3x-tk-luciferase in HeLa cells, agonist mode; format: cell-based; settings: for agonistic activity on RARα-mediated transactivation: HeLa cells, ligand at single selective concentration, compared with 10 nM TTNPB (100%)
T1 construct: expressed in transfected cells; host or cells: HeLa
Excerpt: (§1) To evaluate the activity of a panel of synthetic retinoids (Fig 1) on RAR-mediated transactivation, we used HeLa cells transiently transfected with human RARα1,-β2, or—γ2 and a (RARE)3x-tk-luciferase reporter gene. Well characterized full agonist and antagonist retinoids were also used as reference compounds (S2 Fig). […] To further characterize the activation profile of BMS compounds, transfected cells were exposed to a range of ligand concentrations to establish dose-response curves.
(§2) (A to C) HeLa cells were transiently cotransfected with the reporter (RARE)3x-tk-Luc and RARα (A), RARβ (B) or RARγ (C), as indicated, to assess the RAR agonist potential of synthetic RAR ligands.
(§3) HeLa cells were cultured in DMEM with Glutamax and 10% (v/v) FCS and transfected using JetPei transfectant (Ozyme). After 24 h, the medium was changed to a medium containing the indicated ligands or vehicle. Cells were lysed and assayed for reporter expression 48 h after transfection. The luciferase assay system was used according to the manufacturer’s instruction (Promega). In each case results were normalized to coexpressed β–galactosidase. Each transfection was carried out in duplicate and repeated each three to six times.

RARγ→β = tested on: T2, RARγ→β; test: Transient transactivation assay with chimeric LBP mutant RARγ→β in HeLa cells; format: cell-based; settings: 10^–9 to 10^–6 M; 100% = TTNPB at 10nM
T2 construct: expressed in transfected cells; host or cells: HeLa
Excerpt: (§4) Supplementary file pone.0123195.s004.eps: S4 Fig The methionine 272 of RARγ LBP is a most important discriminatory element for the RARβ-specific response to BMS948. […] To investigate the role of these residues in the RARβ–specific response to BMS948, we compared the agonistic and antagonistic potentials of this compound for RARβ and RARγ, as well as chimeric RAR mutants in which LBPs were interconverted (denoted RARβ→γ and RARγ→β). Dose-response curves were established from transient transfection in HeLa cells of these proteins and a (RARE)3x-tk-luciferase reporter gene as described in Figs 2 and 3. […] (A) HeLa cells were transiently cotransfected with the reporter (RARE)3x-tk-Luc and RARβ (open circles), RARγ (closed diamonds), RARγ→β in which the methionine residue 272 in RARγ LBP is replaced by an isoleucine residue (open squares), or RARβ→γ in which the isoleucine residue 263 in RARβ LBP is replaced by a methionine residue (closed triangles) to assess the agonist potential of BMS948. […] (B) Transient transfection assays in HeLa cells with the reporter (RARE)3x-tk-Luc and RARβ→γ as in (A) to assess the antagonist potential of BMS948 and BMS493. […] (EPS) Click here for additional data file.

hRARβL298F = tested on: T3, hRARβL298F; test: Transient transactivation assay with mutant hRARβL298F in HeLa cells; format: cell-based, human
T3 construct: expressed in transfected cells; host or cells: HeLa
Description: The construct was verified by DNA sequencing.
as §3
(EPS) Click here for additional data file.

RARα = biological target: T4, RARα (Homo sapiens, UniProt P10276); test: Transient transactivation assay, antagonist mode (competition with TTNPB-induced activity); format: cell-based; settings: reporter activated with 3 nM TTNPB (100%); retinoids at 1 μM or increasing amounts
T4 construct: expressed in transfected cells; host or cells: HeLa
T4 sequence (P10276 1-462): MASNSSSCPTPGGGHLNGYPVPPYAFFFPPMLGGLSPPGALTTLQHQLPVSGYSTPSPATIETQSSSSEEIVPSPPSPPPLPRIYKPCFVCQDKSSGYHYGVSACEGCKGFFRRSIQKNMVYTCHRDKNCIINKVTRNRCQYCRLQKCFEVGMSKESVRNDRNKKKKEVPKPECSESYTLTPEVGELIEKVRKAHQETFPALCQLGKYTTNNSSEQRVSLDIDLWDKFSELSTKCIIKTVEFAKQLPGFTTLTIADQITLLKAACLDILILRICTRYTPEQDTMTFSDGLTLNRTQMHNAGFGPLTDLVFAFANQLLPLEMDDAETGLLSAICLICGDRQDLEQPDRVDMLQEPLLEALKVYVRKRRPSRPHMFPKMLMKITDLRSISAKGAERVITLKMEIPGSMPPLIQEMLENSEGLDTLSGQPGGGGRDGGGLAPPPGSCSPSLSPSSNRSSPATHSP
Description: (§5) To this end, transient transactivation assays were conducted in order to assess the ability of the synthetic retinoids to affect TTNPB-induced RAR activity. […] Competition curves with increasing concentrations of BMS411 yielded an IC50 of roughly 30 nM for RARα in keeping with the high affinity of this compound for this receptor subtype (Fig 3D). […] Overall, our data lead to the general conclusion that BMS948 is a full RARβ-selective agonist.
(§6) Fig 3 BMS948 is an RARβ-selective ligands. (A to C) Transient transactivation assays as in Fig 2 to assess the antagonist potential of synthetic RAR ligands (RARα (A), RARβ (B) or RARγ (C)).
as §3

RARβ-TIF2 interaction = tested on: T5, RARβ-TIF2 interaction; test: Mammalian two-hybrid assay Gal-TIF2 / VP16-RARβLBD in HeLa cells; format: cell-based; settings: BMS compounds at 1 μM, TTNPB 10 nM
T5 construct: expressed in transfected cells; host or cells: HeLa
Excerpt: (§7) Supplementary file pone.0123195.s005.eps: S5 Fig Molecular basis of BMS641 partial activity. According to the current model of gene regulation by RARs, the agonistic property of a given retinoid depends on its ability to induce coregulator recruitment. RAR agonists dissociate corepressors (such as SMRT) and induce the recruitment coactivators (such as TIF2), resulting in transactivation. […] BMS641 was therefore categorized as a partial RARβ agonist. To further characterize the partial activity of BMS641, we used two-hybrid assays to monitor the interaction between RARβ and transcriptional coregulators in the presence of various retinoids. In these assays, a chimeric luciferase-based reporter gene ((17 m)5x-βGlob-Luc) is transfected together with two expression vectors. One expresses a fusion protein (Gal-TIF2 or Gal-SMRT) that binds through the Gal DNA binding domain (Gal) to the pentamer of the “17m” DNA recognition site in the reporter gene and contains the nuclear receptor interacting domain of the coregulator. The other vector expresses a second fusion protein composed of the VP16 acidic transcription activation domain, and the LBD of RARβ. […] Strikingly, the RARβ-SMRT interaction was maintained in the presence of BMS641, in agreement with the partial agonistic activity of this compound. […] BMS641 induces reduced coactivator recruitment, but cannot dissociate corepressors. […]

human RARγ2 = tested on: T6, human RARγ2; test: Transient transactivation reporter assay, (RARE)3x-tk-luciferase in HeLa cells, agonist mode; format: cell-based
T6 construct: expressed in transfected cells; host or cells: HeLa
Excerpt: as §1, §2, §3

human RARβ2 = biological target: T7, human RARβ2 (Homo sapiens, UniProt P10826); test: as above; format: cell-based
T7 construct: expressed in transfected cells; host or cells: HeLa
T7 sequence (P10826 1-448 isoform P10826-2): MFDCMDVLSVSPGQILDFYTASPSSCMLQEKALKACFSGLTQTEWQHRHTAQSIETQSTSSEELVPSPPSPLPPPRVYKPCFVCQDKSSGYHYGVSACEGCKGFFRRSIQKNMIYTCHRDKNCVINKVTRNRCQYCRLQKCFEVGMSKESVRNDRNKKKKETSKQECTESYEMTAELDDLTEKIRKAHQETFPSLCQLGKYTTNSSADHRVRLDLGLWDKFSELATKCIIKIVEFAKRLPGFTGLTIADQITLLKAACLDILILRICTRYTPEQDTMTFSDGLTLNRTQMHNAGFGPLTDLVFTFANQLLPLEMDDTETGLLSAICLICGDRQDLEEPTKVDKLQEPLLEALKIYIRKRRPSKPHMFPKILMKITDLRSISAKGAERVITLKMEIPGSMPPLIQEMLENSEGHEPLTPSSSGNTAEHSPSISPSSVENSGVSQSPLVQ
Excerpt: as §1, §2, §3

RARγ [1] = tested on: T8, RARγ; test: Transient transactivation assay, antagonist mode (competition with TTNPB-induced activity); format: cell-based, human; settings: reporter activated with 3 nM TTNPB (100%); retinoids at 1 μM or increasing amounts
T8 construct: expressed in transfected cells; host or cells: HeLa
Description: as §5, §6, §3

RARβ [2] = tested on: T9, RARβ; test: as above; format: cell-based, human; settings: reporter activated with 3 nM TTNPB (100%); retinoids at 1 μM or increasing amounts
T9 construct: expressed in transfected cells; host or cells: HeLa
Description: as §5, §6, §3

RARβ-SMRT interaction = tested on: T10, RARβ-SMRT interaction; test: Mammalian two-hybrid assay Gal-SMRT / VP16-RARβLBD in HeLa cells; format: cell-based; settings: BMS compounds at 1 μM, TTNPB 10 nM; 100% = absence of ligand
T10 construct: expressed in transfected cells; host or cells: HeLa
Excerpt: as §7

RARβ→γ = tested on: T11, RARβ→γ; test: Transient transactivation assay with chimeric LBP mutant RARβ→γ in HeLa cells; format: cell-based
T11 construct: expressed in transfected cells; host or cells: HeLa
Excerpt: as §4

RARγ [3] = settings: also personal data not shown; cited from earlier work
RARβ [4] = settings: cited from earlier work
[5] = 10^–10 to 10^–6 M, only at the highest ligand concentration used (1 μM)

antagonistic activity on TTNPB-induced RARα transactivation (RARα)	EC50 (human RARβ2; dose-response 10^–10 to 10^–6 M, read-out: EC50 transactivation for RARβ)	agonistic activity on RARβ-mediated transactivation (human RARβ2; ligand at single selective concentration, compared with 10 nM TTNPB (100%))	Compound	agonistic activity on RARα-mediated transactivation (human RARα1)	agonist potential on RARγ→β (RARγ→β)	efficacy on RARβL298F in dose-response curves (hRARβL298F; S6 Fig, increasing concentrations)	transcriptional activity on RARβL298F as compared to TTNPB (hRARβL298F; retinoids at 0.1 μM, 10 nM TTNPB = 100% with wild-type hRARβ)	RARβ-TIF2 interaction (coactivator recruitment) (RARβ-TIF2 interaction)	activation of RARγ in dose-response curves (human RARγ2; [5])	agonistic activity on RARγ-mediated transactivation (human RARγ2; HeLa cells, ligand at single selective concentration, compared with 10 nM TTNPB (100%))	activation of RARα in dose-response curves (human RARα1; [5])	antagonistic activity on TTNPB-induced RARγ transactivation (RARγ [1])	antagonistic activity on TTNPB-induced RARβ transactivation (RARβ [2])	RARβ-SMRT interaction (corepressor binding) (RARβ-SMRT interaction)	antagonist potential on RARβ→γ (RARβ→γ; 3 nM TTNPB (100%) plus compound at 1 μM)	agonist potential on RARβ→γ (RARβ→γ; 10^–9 to 10^–6 M, 100% = TTNPB at 10nM, only at high concentration)	reported activity on RARγ (RARγ [3])	reported activity on RARβ (RARβ [4])
–	–	–	CC1(C)CCC(C)(C)c2cc(C(=O)Nc3ccc(C(=O)O)cc3)ccc21 [Am580, reference compound]	full agonistic activity	–	–	–	–	–	–	–	–	–	–	–	–	–	–
very weak	~100 nM	full RARβ-agonist	O=C(O)c1ccc(NC(=O)c2ccc3cccc(-c4ccccc4)c3c2)cc1 [BMS948]	very weak activity	potent full agonist	70%	50–60%	optimal	very weakly	very weak activity	very weakly	very weak	no	decreased	did not reduce TTNPB-induced activity	very weak activation	–	–
–	–	–	CN1c2cc3c(cc2N=C(c2ccc(C(=O)O)cc2)c2ccccc21)C(C)(C)CCC3(C)C [LE135]	–	–	–	–	–	–	–	–	–	–	–	–	–	some RARγ partial agonistic activity	antagonist showing some selectivity for RARβ
